From patent publication US20230016007A1, “SOLUTIONS AND METHODS FOR FORMING AN EXOGENOUS FLEXIBLE FILM, WHICH INCLUDES A SUPPLEMENTAL COMPONENT, ON A PLANT AND PLANTS INCLUDING THE EXOGENOUS FLEXIBLE FILM” (Cultiva, LLC, priority 2017, published 2023)

System: grey mold (Botrytis cinerea)
Test: grey mold on Frontelis strawberries 7 days post-harvest (FIG. 11)
Protocol: The four groups were evaluated for infestation with grey mold 7 days post-harvest.

CC1(C(=O)Nc2ccc(O)c(Cl)c2Cl)CCCCC1 [Fenhexamid]
infestation with grey mold: exhibited at least some infestation
